{"source": "patent US20110190376A1", "about": "“RNAi-RELATED INHIBITION OF TNFa SIGNALING PATHWAY FOR TREATMENT OF MACULAR EDEMA” (ALCON RESEARCH, LTD., priority 2007, published 2011)", "origin": "cited, not measured here", "key": {"[1]": {"test_system": "refractory chronic cystoid macular edema (CME)"}, "[2]": {"test_system": "severe diabetic macular edema", "settings": "eyes that had severe diabetic macular edema"}, "[3]": {"test_system": "macular edema", "settings": "patients also suffering from posterior uveitis"}}}
{"substance": "infliximab", "values": [{"measurement": "eyes with complete regression of refractory chronic cystoid macular edema", "setting": "[1]", "value": "8 of 14"}, {"measurement": "eyes with anatomic and functional improvement", "setting": "[2]", "value": "four of six"}, {"measurement": "resolution of macular edema", "setting": "[3]", "value": "caused macular edema to resolve in two patients"}]}
